In PubChem BioAssay AID1918998 (Molecular Pharmacology Branch, DTP, NCI, 2023):

Test system: 521955-158-R2-J5-PDC complex spheroid growth
Test: Anticancer human tumor 521955-158-R2-J5-PDC patient-derived pancreatic carcinoma cell line growth inhibition [AhR]
Details: for IC50: curve of first compound; for viability, T/C: stronger effect = lower value
Excerpt: Multicellular complex tumor spheroid response to aryl hydrocarbon receptor antagonists in combination with a variety of drugs and investigational agents in selected tumor cell lines
The current study was undertaken to assess response to aryl hydrocarbon receptor antagonists in combination with standard-of-care drugs and investigational agents in solid tumor complex spheroid models. Complex spheroids include a stromal component modeled by human endothelial cells (HUVEC) and fibroblasts modeled by human mesenchymal stem cells (MSCs). The concentration ranges selected for each drug and investigational agent were based upon clinically achievable concentrations if the clinical Cmax of the agent was known.
Compounds. The drugs and investigational agents: BAY 2416964 (NSC825713), GNF351 (NSC835774), CH-223191 (NSC835775), CPI-455 (NSC825282), aza-TdCyd (NSC777586), decitabine (NSC127716), belinostat (NSC758774), entinostat (NSC756642), pevonedistat (NSC761192), tazemetostat (NSC777109), talazoparib (NSC765396), olaparib (NSC753686), selinexor (NSC780203), nedisertib (M3814, NSC802822), bortezomib (NSC756655), venetoclax (NSC766270), doxorubicin (NSC123127), elimusertib (BAY189344, NSC800525), ceralasertib (AZD6738, NSC777638), TAK-243 (NSC785004), alisertib (NSC759677), etoposide (NSC141540), topotecan (NSC609699), eribulin (NSC707389), gemcitabine (NSC613327), carboplatin (NSC241240), cisplatin (NSC119875), and SN-38 (NSC673596) were obtained from the National Cancer Institute (NCI) Developmental Therapeutics Program Chemical Repository (32). The FDA-approved anticancer drug set is available from the Developmental Therapeutics Program at https://dtp.cancer.gov/organization/dscb/obtaining/available plates.htm. […] The stock solutions were prepared in dimethyl sulfoxide (DMSO, Sigma-Aldrich, St. Louis, MO, cat. D2650), except for the platinum compounds which were prepared in saline (Quality Biological, Gaithersburg, MD, cat. 114-055-101), at 800-fold the tested concentration and stored at -70 degrees C prior to their use. All drugs and investigational agents were tested over a range starting from a high concentration at or near the clinical Cmax and decreasing in half-log increments. If the clinical Cmax for an agent had not been determined, the highest concentration tested was 10 microM (Table 1).
Cell Culture. All cells were maintained in an incubator at 37 degrees C and 5% CO2 with 95% humidity. The PDC lines were cultured according to standard operating procedures established by the NCI PDMR (https://pdmr.cancer.gov). Briefly, all PDCs were thawed and cultured in Matrigel-coated flasks prepared with a working solution of 1X Ham's F-12 nutrient mix, without supplementation (Invitrogen, Waltham, MA, cat. 11765054), 100 U/mL penicillin-streptomycin (Invitrogen, cat. 15140122), and 2.5% Matrigel (Corning Inc., Corning, NY, cat. 354248) for the first three passages. All PDCs were cultured in complete DMEM/F-12 media containing advanced DMEM/F-12 (Invitrogen, cat. 12634028), 4.9% defined fetal bovine serum, heat inactivated (HyClone Laboratories Inc., Logan, UT, cat. SH30070.03HI), 389 ng/mL hydrocortisone (Sigma-Aldrich, cat. H4001), 9.7 ng/mL human EGF recombinant protein (Invitrogen, cat. PHG0313), 23.4 microg/mL adenine (Sigma-Aldrich, cat. A2786), 97.3 U/mL penicillin-streptomycin (Invitrogen, cat. 15140122), 1.9 mM L-glutamine (Invitrogen, cat. 25030081), and 9.7 microM Y-27632 dihydrochloride (Tocris Bioscience, Bristol, United Kingdom, cat. 1254). The PDCs were cultured in complete DMEM/F12 media without 10 microM Y-27632 dihydrochloride for at least two passages prior to the screen. The established cell lines NCI-H1341 and […] were cultured in DMEM/F-12, HEPES (Invitrogen, cat. 11330032), 5% defined fetal bovine serum (HyClone Laboratories Inc., cat. SH30070.03), ITS premix universal culture supplement [insulin (5 microg/mL), transferrin (5 microg/mL), and selenious acid (5 ng/mL)] […]

[1] = second compound 0.1 µM, first compound 0.0316 µM
[2] = second compound 0.1 µM, first compound 0.1 µM
[3] = second compound 0.1 µM, first compound 0.316 µM
[4] = second compound 0.1 µM, first compound 1 µM
[5] = second compound 0.1 µM, first compound 3.16 µM
[6] = second compound 0.1 µM, first compound 10 µM
[7] = second compound 0.316 µM, first compound 0.0316 µM
[8] = second compound 0.316 µM, first compound 0.1 µM
[9] = second compound 0.316 µM, first compound 0.316 µM
[10] = second compound 0.316 µM, first compound 1 µM
[11] = second compound 0.316 µM, first compound 3.16 µM
[12] = second compound 0.316 µM, first compound 10 µM
[13] = second compound 1 µM, first compound 0.0316 µM
[14] = second compound 1 µM, first compound 0.1 µM
[15] = second compound 1 µM, first compound 0.316 µM
[16] = second compound 1 µM, first compound 1 µM
[17] = second compound 1 µM, first compound 3.16 µM
[18] = second compound 1 µM, first compound 10 µM
[19] = second compound 3.16 µM, first compound 0.0316 µM
[20] = second compound 3.16 µM, first compound 0.1 µM
[21] = second compound 3.16 µM, first compound 0.316 µM
[22] = second compound 3.16 µM, first compound 1 µM
[23] = second compound 3.16 µM, first compound 3.16 µM
[24] = second compound 3.16 µM, first compound 10 µM
[25] = second compound 10 µM, first compound 0.0316 µM
[26] = second compound 10 µM, first compound 0.1 µM
[27] = second compound 10 µM, first compound 0.316 µM
[28] = second compound 10 µM, first compound 1 µM
[29] = second compound 10 µM, first compound 3.16 µM
[30] = second compound 10 µM, first compound 10 µM
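Wherever viability, T/C is given: spheroids mix tumor cells with HUVEC endothelium and human MSC stroma; luminescence taken as viability surrogate after a week of drug exposure.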

SMILES	IC50 (second compound 0.1 µM) [nM]	IC50 (second compound 0.316 µM) [nM]	IC50 (second compound 1 µM) [nM]	IC50 (second compound 3.16 µM) [nM]	IC50 (second compound 10 µM) [nM]	viability, T/C [1] [%]	viability, T/C [2] [%]	viability, T/C [3] [%]	viability, T/C [4] [%]	viability, T/C [5] [%]	viability, T/C [6] [%]	viability, T/C [7] [%]	viability, T/C [8] [%]	viability, T/C [9] [%]	viability, T/C [10] [%]	viability, T/C [11] [%]	viability, T/C [12] [%]	viability, T/C [13] [%]	viability, T/C [14] [%]	viability, T/C [15] [%]	other results
Nc1ccn(C2OC(CO)C(O)C2(F)F)c(=O)n1 (stereo not given) + CC(CO)NC(=O)c1cc(-c2ccc(Cl)cc2)nn(-c2cnn(C)c2)c1=O	518	549	504	178	101	59.8	75.3	72.4	24.4	13.2	13.6	56	73.8	86.4	26.1	11.4	9.09	90.5	87.8	68.7	viability, T/C [16]: 22.6%; viability, T/C [17]: 14.2%; viability, T/C [18]: 14.8%; viability, T/C [19]: 78.1%; viability, T/C [20]: 56.4%; viability, T/C [21]: 45.5%; viability, T/C [22]: 20.9%; viability, T/C [23]: 16.4%; viability, T/C [24]: 11.9%; viability, T/C [25]: 50.2%; viability, T/C [26]: 54.5%; viability, T/C [27]: 36.3%; viability, T/C [28]: 22.5%; viability, T/C [29]: 15.5%; viability, T/C [30]: 10.5%
O=C(c1cc(Cc2n[nH]c(=O)c3ccccc23)ccc1F)N1CCN(C(=O)C2CC2)CC1 + CC(CO)NC(=O)c1cc(-c2ccc(Cl)cc2)nn(-c2cnn(C)c2)c1=O	> 10000	> 10000	> 10000	> 10000	> 10000	116	107	116	85.6	76.7	75.3	102	119	93.7	101	73.2	71.3	101	104	110	viability, T/C [16]: 88.7%; viability, T/C [17]: 83.7%; viability, T/C [18]: 72.6%; viability, T/C [19]: 91.9%; viability, T/C [20]: 128%; viability, T/C [21]: 110%; viability, T/C [22]: 97.7%; viability, T/C [23]: 85.4%; viability, T/C [24]: 70.5%; viability, T/C [25]: 68.5%; viability, T/C [26]: 82.6%; viability, T/C [27]: 87.4%; viability, T/C [28]: 79.9%; viability, T/C [29]: 70.6%; viability, T/C [30]: 50.5%
